# PubChem BioAssay AID179 (DTP/NCI, 2004)
# Activity calls are given as the source filed them.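 Rule for the calls: active = compounds giving half or more protection of infected cells from virus-caused growth loss, again on retest; inactive = the rest.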 Where a SMILES comes first, the peptide text is derived from it. The star is where a group is joined. Cbz = O=C(OCc1ccccc1)*
# System: CEM cells HIV-1 protection, formazan growth assay
# Assay: NCI AIDS Antiviral Assay
# Details: for IC50: measured here: growth of uninfected CEM cells
# Method in brief: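 Protection of CEM cells against HIV-1 was scored from cell growth (soluble formazan) across five concentrations, with parallel uninfected cells. Lack of protection may reflect toxicity.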
Structure (SMILES),outcome,EC50,IC50
COc1cc(O)c(C(=O)C2Cc3ccccc32)c(OC)c1 (centres undefined),inactive,,
CCCCCC=C(c1ccc(OC)c(S(=O)(=O)N(C)C)c1)c1ccc(OC)c(S(=O)(=O)N(C)C)c1,,> 35.5 µM,> 35.5 µM
CCOC(=O)C1=C(C)NC(=O)NC1c1ccccc1 (centres undefined),,> 200 µM,> 200 µM
CN(/N=C\c1ccnc2ccccc12)c1ccccc1,inactive,,
OC1COC(n2c3ccc(Br)cc3c3ccc4c5ccccc5[nH]c4c32)C(O)C1O (centres undefined),,> 112 µM,
CN1c2ccccc2C2=C(c3ccccc3)CC[C@@H](C(=O)N3C4CC5CC[C@@]4(CS3(=O)=O)C5(C)C)[C@@H]21 (some centres undefined),,> 200 µM,129 µM
Cc1ccc2c(c1)P(=O)(O)c1cc(C)ccc1O2,,> 200 µM,> 200 µM
CCCCCC1C2C(=O)NC(=O)C1C(=O)NC2=O (centres undefined),,> 1000 µM,> 1000 µM
C=C1SC(=Nc2c(C)cccc2C)N(c2nc(Cl)nc(Cl)n2)C12CCCCC2,,> 200 µM,162 µM
COc1cc(O)c2c(c1)O[C@@H]1OCC[C@H]21,,> 1200 µM,871 µM
COC(=O)NC(Nc1ccc(C)cc1)(C(F)(F)F)C(F)(F)F,inactive,,
Cn1c(=O)nc2n(CCO)ccnc-2c1=O,,> 100 µM,> 100 µM
C=CCOC(=O)C1C2OC3(C(C(=O)OC)=C2C(=O)OC)c2ccccc2CCC13 (centres undefined),,> 200 µM,1.15 µM
O=C(O)CCCCC1CCSS1 (centres undefined),,186 µM,> 200 µM
Oc1c2c(c(O)c3ccccc13)C1(N=N2)c2ccccc2Oc2ccccc21,inactive,,
CCCCCCCCCCCCCCCCCCNC(=S)/N=C/c1c(O)c2ccccc2[nH]c1=O,,> 200 µM,44.7 µM
CCC1Sc2cc(OC)cc([N+](=O)[O-])c2NC1=O (centres undefined),,> 200 µM,> 200 µM
O=C(NC(=O)c1ccccc1O)c1ccccc1,,> 282 µM,> 282 µM
COC1CC(CC(C)=O)CN(C#N)CCc2c1[nH]c1ccccc21 (centres undefined),,> 132 µM,> 132 µM
COc1ccc2c(c1)OC[C@@H]1c3cc4c(cc3O[C@H]21)OCO4,,> 63.1 µM,> 63.1 µM
COc1nc2c(c(=O)[nH]1)N=C(c1ccc([N+](=O)[O-])cc1)CC(c1ccccc1)N2 (centres undefined),,> 200 µM,46.8 µM
COC(OC)c1cccc2c1C(=O)CCC1(O)c3ccccc3C1C2 (centres undefined),,> 155 µM,138 µM
O=C1[O][Hg][c]2cccc3cccc1c23,inactive,,

Structure (SMILES),outcome,EC50,IC50
O=c1[nH]cc(N=Nc2ccc(S(=O)(=O)Nc3ccccn3)cc2)cc1O,,> 200 µM,87.1 µM
CCN(CC)S(=O)(=O)c1ccc(Nc2nc(Cl)nc(Cl)n2)cc1,,> 200 µM,> 200 µM
C[n+]1c2ccccc2c(/C=N\NS(=O)(=O)c2ccc(O)c(C(=O)O)c2)c2ccccc21,inactive,,
O=C(CCSCCC(=O)NNc1ccccc1)NNc1ccccc1,,> 20 µM,> 20 µM
O=C(O)c1ccccc1C(=O)NC(Cc1cccc(NP(=O)(N2CC2)N2CC2)c1)C(=O)O (centres undefined),,27.5 µM,> 200 µM
c1ccc2c(c1)NC1CCN2C1 (centres undefined),,> 813 µM,> 813 µM
CCCCCCCC(=O)OC(CBr)COC(=O)C(C)(C)C (centres undefined),,> 251 µM,191 µM
CCOC(=O)CNC(=O)C(NC(=O)C1CCCN1C(=O)OCc1ccccc1)C(C)CC (stereo not drawn) (Cbz-Pro-Ile-Gly-OEt; configuration not given here),,> 562 µM,34.7 µM
O=c1[nH]cnc2c1C(c1ccccc1)c1ccccc1-2 (centres undefined),,> 38 µM,> 38 µM
O=c1oc2ccc([N+](=O)[O-])cc2cc1-c1csc(-c2ccccc2)n1,inactive,,
C/C=C(/CCCCOC1CCCCO1)[Si](C)(C)C (centres undefined),inactive,,
Nc1ncnc2c1ncn2C1OC(CSC(F)F)C(O)C1O (centres undefined),,> 759 µM,219 µM
CC(=O)c1ccccc1NCC(=O)Nn1cnc2ccc(S(=O)(=O)Nc3ccccc3C(C)=O)cc2c1=O,,> 200 µM,> 200 µM
O=C(O)c1ccc(CS(=O)(=O)c2ccccc2)cc1,,> 912 µM,> 912 µM
CC(=O)OC1=NC(C)c2c1cc(OC(C)=O)[nH]c2=O (centres undefined),,> 14.5 µM,> 14.5 µM
CC(=O)C1CCN(Cc2ccccc2)C1 (centres undefined),inactive,,
O=S(=O)(CC#CCO)c1ccccc1,inactive,,
O/N=C1/C(=C/c2ccccc2)CCCC1C(NO)c1ccccc1 (centres undefined),,> 81.3 µM,> 81.3 µM
COC(=O)CC(c1ccccc1)C1(c2ccccc2)SCCS1 (centres undefined),,> 7.94 µM,> 7.94 µM
CC(=NCCN(CCN=C(C)c1c(O)cc(C)oc1=O)CCN=C(C)c1c(O)cc(C)oc1=O)c1c(O)cc(C)oc1=O,,> 200 µM,> 200 µM
Cc1ccc(C(=O)NC(C)(C)C)cc1N=NN(C)C,,> 138 µM,> 138 µM
CN1CCCNC(=S)C1,inactive,,
CC1=C(C(=O)Nc2ccccc2)C(c2ccccc2Cl)C(C(=O)Nc2ccccc2)=C(C)N1,inactive,,

Structure (SMILES),outcome,EC50,IC50
O=S(=O)(O)C(F)(F)C(F)(F)C(F)(F)C(F)(F)C(F)(F)C(F)(F)C(F)(F)C(F)(F)F,,> 200 µM,> 200 µM
O=C(O)C1COCN1C(=O)c1cc2ccccc2cc1SSc1cc2ccccc2cc1C(=O)N1COCC1C(=O)O (centres undefined),,> 200 µM,93.3 µM
Cc1cn([C@H]2C[C@@H]3[C@@H](COC(CC[Se]C#N)N3O)O2)c(=O)[nH]c1=O (some centres undefined),,3.98 µM,28.8 µM
CCC[CH2][Sn]([CH2]CCC)([S]C1=NCCS1)[S]C1=NCCS1,,> 39.8 µM,0.759 µM
N#CCC(=O)Nc1ccccc1O,,> 708 µM,> 708 µM
CN(C)c1ccc(C2CC(c3ccc4ccccc4c3O)=NN2c2ccc([N+](=O)[O-])cc2[N+](=O)[O-])cc1 (centres undefined),,> 151 µM,33.1 µM
NC(N)=N/N=C\c1c(-c2ccccc2)nc2sccn12,,> 200 µM,12 µM
N#C/C(=C\c1ccc(-c2ccccc2)cc1)c1ccc([N+](=O)[O-])cc1,,> 200 µM,> 200 µM
O=C(CC(=O)c1ccc(Cl)cc1)Cc1ccc2ccccc2n1,,> 11.2 µM,> 11.2 µM
CCN(CC)Cc1c(C(=O)NCCO)[n+](=O)c2ccccc2n1[O-],,> 178 µM,> 178 µM
N#CCCN(c1ccc(C=Nc2ccc(C(=O)O)cc2)cc1)S(=O)(=O)c1ccccc1,,> 302 µM,> 302 µM
CC[C@]1(Cc2ccc(OC)c(OC)c2)C=[N+]([O-])O[C@H](OC2CCCC2(c2ccccc2)c2ccccc2)[C@@H]1OC(=O)c1ccccc1 (some centres undefined),,> 200 µM,1.07 µM
CCN(CC)CC(=O)N1CCc2c([nH]c3ccccc23)C1c1cccnc1 (centres undefined),,> 138 µM,> 138 µM
COc1cc(Nc2cnc3cc(N)ccc3n2)cc(OC)c1OC,,> 200 µM,> 200 µM
CCC1(CC)COP(=S)(SCCOC(=O)c2ccccc2)OC1,,> 200 µM,46.8 µM
COc1ccc2nc3cc([N+](=O)[O-])ccc3c(Nc3ccc(S(=O)(=O)NC(C)=O)cc3)c2c1,,> 200 µM,75.9 µM
CCOC(=O)/C(F)=C/c1cccc(F)c1,,> 170 µM,> 170 µM
COC1C(=[N+]=[N-])C(=O)NC(=O)N1C1OC(COC(c2ccccc2)(c2ccccc2)c2ccccc2)C(O)C1O (centres undefined),,> 18.2 µM,> 18.2 µM
NC(=O)C(=CN1C(=O)/C(=C/c2ccccc2O)SC1=S)C(N)=O,,> 200 µM,123 µM
CC(=O)c1c(P(=O)(OC(C)C)OC(C)C)nn(-c2ccc([N+](=O)[O-])cc2)c1C,,> 166 µM,> 166 µM
COC(=O)c1c[nH]c(=O)[nH]c1=O,,> 200 µM,> 200 µM
COc1cc(C(c2cc3c(cc2O)OCO3)N2CCCC2)cc(OC)c1OC (centres undefined),,> 200 µM,7.76 µM
C/C(=C\c1ccccc1)C(O)C(=O)c1nc2ccc([N+](=O)[O-])cc2[nH]c1=O (centres undefined),inactive,,

Structure (SMILES),outcome,EC50,IC50
C/C(N=NS(=O)(=O)c1ccccc1)=C1\C=CC=CN1O,inactive,,
N#CC1C2C1C1C=CC2n2c(=O)n(-c3ccccc3)c(=O)n21 (centres undefined),,> 200 µM,> 200 µM
CC12CCC3[C@@H](CC3(C)C)C(O)(CCC1=O)C2 (some centres undefined),,> 200 µM,> 200 µM
O=c1[nH]c(=O)n(C2OC(CO)C(O)C2O)c2ccsc12 (centres undefined),,> 200 µM,> 200 µM
COC(=O)c1cc(CC(C)C)c2c(c1)[nH]c1ccccc12,,> 35.5 µM,> 35.5 µM
COC(OC)[C@@H]1OC[C@H](n2cnc3c(N)ncnc32)[C@H]1O,,> 200 µM,> 200 µM
Nc1ncccc1N1C(=O)c2ccccc2C1=O,,> 200 µM,> 200 µM
C/C(=C\c1ccccc1)C(=O)c1c(C)cc(C)cc1C,,> 38 µM,> 38 µM
CC[C@H]1CN2CCc3cc(OC)c(OC)cc3[C@@H]2C[C@@H]1C[C@H]1NCCc2cc(O)c(OC)cc21,inactive,,
CC(=O)Nc1ccc(/C=c2\sc3nnc(CCC(=O)Nc4ccccc4Cl)n3c2=O)cc1,,> 28.8 µM,> 28.8 µM
CCc1ccccc1NC(=O)C1=C(C)NC(C)=C(C(=O)Nc2ccccc2CC)C1c1ccccc1Cl,,> 10 µM,> 10 µM
CC(=O)O[C@]12CCCCCC1C1(O)C(O)CCC[C@H]12 (some centres undefined),,> 200 µM,> 200 µM
C=CCNC(=S)Nc1ccc(Cl)cc1,,> 200 µM,120 µM
N#C/C(=C\n1ccc(=O)[nH]c1=S)c1nc2ccccc2s1,,> 200 µM,> 200 µM
Cc1ccc(C(=O)N2CCN(C(=O)c3ccc(C)cc3)c3ccccc32)cc1,,> 10.2 µM,1.82 µM
NCCN1C(=O)C2C3c4ccccc4C(c4ccccc43)C2C1=O (centres undefined),inactive,,
CCOc1ccccc1NC(=O)C(=O)c1c(O)c2ccc(O)cc2oc1=O,,> 490 µM,182 µM
CC(C)NS(=O)(=O)c1ncnc2nc[nH]c12,inactive,,
Cc1cccc2c1c1ccc3c(c1n2C)C(=O)C=CC3=O,,> 18.2 µM,9.77 µM
O=c1c2cccnc2n2n1Cc1ccccc1C2,,> 200 µM,151 µM
CCC(=O)c1c(CC)ccc2ccccc12,,> 200 µM,105 µM
CCCCCCCCOCC(CO)OCCCCCCCC (centres undefined),,> 251 µM,132 µM
